# In patent publication US10238667B2, “Vitamin D receptor/SMAD genomic circuit gates fibrotic response” (Salk Institute for Biological Studies, priority 2013, dated 2019):
# Assays:
# Format in all cases: cell-based, human
# [1] = tested on: SMAD3; assay: ChIP-qPCR time course of SMAD3 binding at COL1A1 regulatory region #1 in LX-2 cells
# From the text: FIGS. 14A-14D. VDR/SMAD Genomic Circuit. […] Data represents the mean±SEM of at least three independent experiments performed in triplicate. Asterisks denote statistically significant differences compared to calcipotriol-induced VDR occupancy or TGFβ1-induced SMAD3 occupancy of corresponding time point (Student's unpaired t-test, *p<0.05, **p<0.01). […] Data represents the mean±SEM of at least three independent experiments performed in triplicate. (D) Model depicting proposed VDR/SMAD genomic circuit controlling pro-fibrogenic responses in HSCs.
# (§1) Cells were then harvested for ChIP assay. The experimental procedure for ChIP was as previously described (Barish et al., 2010). Briefly, after fixation, nuclei from LX-2 cells were isolated, lysed and sheared with a Diagenode Bioruptor to yield DNA fragment sizes of 200-1000 base pairs followed by immunoprecipitation using antibodies listed below: normal rabbit IgG (Santa Cruz, sc-2027), VDR (Santa Cruz, sc-1008), SMAD3 (Abcam, ab28379) and histone H3 (Abcam, ab1791). For ChIP-Re-ChIP, after first ChIP, the immunoprecipitated DNA-protein complex was eluted from beads using 10 mM DTT, diluted 100-fold then re-immunoprecipitated with a second antibody, re-ChIP.
# Specifically, ChIP-qPCR was employed to monitor binding of VDR and SMAD3 to the cis-regulatory region of COL1A1 at multiple time points (0, 1, 2, 4, 6, 16 hours).
# [2] = tested on: SMAD3; assay: Immunoprecipitation/Western blot of total and phosphorylated SMAD3 in LX-2 cells; conditions: TGFβ1 1 ng/ml +/- calcipotriol 100 nM
# Procedure: Nuclear extracts were immunoprecipitated using a SMAD2/3 antibody prior to Western blot analysis. Asterisks denote non-specific bands.
# The whole cell lysates were obtained through RIPA buffer lysis while isolation of nuclear extract was performed as previously reported (Ding et al., 2008). Total and nuclear SMAD3 were immunoprecipitated from LX-2 whole cell and nuclear extracts, respectively, using anti-SMAD2/3 antibody (Santa Cruz, sc-133098) followed by SDS-PAGE and western blot detection by anti-SMAD3 (Cell Signaling, 9523) and anti-pSMAD3 (Cell Signaling, 9520) specific antibodies.
# [3] = tested on: SMAD3; assay: ChIP-Seq signal intensity at VDR/SMAD3 co-occupied sites in LX-2 cells (SMAD3); conditions: TGFβ1 1 ng/ml ± calcipotriol 100 nM, 4 hours
# From the text: FIGS. 10A-10G. Genomic Antagonism between VDR and SMAD. […] The three co-occupied sites are designated as 1, 2 and 3. (D) and (F) ChIP-qPCR at COL1A1 regulatory region #1 co-bound by VDR and SMAD3 in LX-2 cells treated as above. (E) and (G) ChIP-qPCR at COL1A1 regulatory region #1 of control (siCNTL), VDR-specific (siVDR), or SMAD3-specific (siSMAD3) siRNA transfected LX-2 cells treated as above. Occupancy is expressed relative to input chromatin. Data represents the mean±SEM of at least three independent experiments performed in triplicate. Asterisks denote statistically significant differences (Student's t-test, *p<0.05, **p<0.01).
# Cells were then harvested for ChIP assay. The experimental procedure for ChIP was as previously described (Barish et al., 2010). […]
# The procedure was as previously described (Barish et al., 2010). Briefly, short DNA reads were aligned against the human hg18 reference genome (NCBI Build 36.1) using the Illumina Pipeline Suite v1.7. Reads were aligned using the Bowtie aligner allowing up to 2 mismatches in the read. […] The threshold for the number of tags that determine a valid peak was selected for a false discovery rate of <0.0001, as empirically determined by repeating the peak finding procedure using randomized tag positions. […]
# [4] = tested on: NCoR, SMRT, HDAC3, CoREST, LSD1, and G9a; assay: ChIP-qPCR of corepressor recruitment at COL1A1 and COL1A2 regulatory regions in LX-2 cells; conditions: calcipotriol 100 nM and TGFβ1 1 ng/ml
# From the text: FIGS. 12A-12B. Coactivator/Corepressor Recruitment and Histone H3 Acetylation Status at Regulatory Regions of Fibrotic Genes Co-occupied by VDR and SMAD. […] The level of occupancy is expressed relative to input chromatin in LX-2 cells treated with corresponding conditions. Data represents the mean+/−SEM of at least three independent experiments performed in triplicate. Asterisks denote statistically significant differences (Student's t test, *p<0.05). […] The level of occupancy is expressed relative to input chromatin in LX-2 cells treated with corresponding conditions.
# as §1
smiles,measurement,setting,value
"C=C1/C(=C\C=C2/CCC[C@]3(C)[C@@H]([C@H](C)/C=C/[C@@H](O)C4CC4)CC[C@@H]23)C[C@@H](O)C[C@@H]1O [calcipotriol, 1α,24-(OH)2-24-cyclopropyl-D3]",SMAD3 recruitment reduced,"[1]; after 4 hours, TGFβ1 + calcipotriol vs TGFβ1",70%
same,time of maximum binding of SMAD3 post-TGFβ1 treatment,"[1]; in the presence of calcipotriol 100 nM, TGFβ1 alone maximal at 4 hours",1 h
same,TGFβ1-induced phosphorylation and subsequent nuclear translocation of SMAD3,[2],did not significantly affect
same,TGFβ-induced recruitment of SMAD3 globally compromised,[3],~1.5 fold
same,altered binding of corepressors to VDR/SMAD3 co-occupied regulatory regions,[4],not detected
